Data published in patent publication US20240294489A1 (Captor Therapeutics S.A., priority 2020, published 2024).

Assays:
Assay type in all cases: cell-based
OPM-2 = assay: Cell viability, additional cell lines (CellTiter-Glo), OPM-2; settings: Homo sapiens, OPM-2, 72 h; read-out: Absolute IC50
Protocol: (§1) Tumor cells are grown at 37° C. in a humidified atmosphere with 5% CO2 in RPMI 1640 medium, supplemented with 10% (v/v) fetal calf serum and 50 μg/ml gentamicin for up to 20 passages, and are passaged once or twice weekly.
(§2) Cells are harvested from exponential phase cultures, counted and plated in 96 well flat-bottom microtiter plates at a cell density depending on the cell line's growth rate (4,000-20,000 cells/well depending on the cell line's growth rate, up to 60,000 for hematological cancer cell lines) in RPMI 1640 medium supplemented with 10% (v/v) fetal calf serum and 50 μg/ml gentamicin (140 μl/well). Cultures are incubated at 37° C. and 5% CO2 in a humidified atmosphere. After 24 h, 10 μl of test compounds or control medium are added and left on the cells for another 72 h. Compounds are serially diluted in DMSO, transferred in cell culture medium, and added to the assay plates by using a Tecan Freedom EVO 200 robotic platform. The DMSO concentration is kept constant at 0.3% v/v across the assay plate. Viability of cells is quantified by the CellTiter-Glo® cell viability assay (Promega G8462). After incubation of cells, 100 μl of CellTiter-Glo® One Solution Assay reagent are added to each well. Plates are shaken for 2 minutes to induce cell lysis and incubated for 20 minutes prior to reading luminescence (LU) by using the EnVision® Xcite multilabel plate reader (Perkin Elmer). […]

EOL-1 = assay: Cell viability, additional cell lines (CellTiter-Glo), EOL-1; settings: Homo sapiens, EOL1; EOL-1, 72 h; read-out: Absolute IC50
Protocol: as §1, §2

NOMO-1 = assay: Cell viability, additional cell lines (CellTiter-Glo), NOMO-1; settings: Homo sapiens, NOMO-1, 72 h; read-out: Absolute IC50
Protocol: as §1, §2

HEP-3B = assay: Cell viability, additional cell lines (CellTiter-Glo), HEP-3B; settings: Homo sapiens, Hep3B, 72 h
Protocol: as §1, §2

SALL4 = target: T1, SALL4 (Homo sapiens, UniProt Q96SW2+Q9UJQ4); assay: SALL4 degradation assay, Kelly cell line (Western blot densitometry); settings: Kelly cells, 100 nM, 24 h, average from n ≥ 2 experiments
T1 construct: SALL4 degradation in the Kelly cell line was investigated; endogenous in cells; host or cells: Kelly
Protocol: Cells were seeded on 6- or 12-well plates, and the compounds to be tested were added at the desired concentration range. […] After 24 h incubation (37° C., 5% CO2), cells were harvested, washed and cell lysates were prepared using RIPA lysis buffer. The amount of protein was determined via BCA assay, and the appropriate quantity was then loaded on the precast gel for the protein separation. After primary and secondary Ab staining, the membranes were washed and signals developed. The densitometry analysis was implemented to obtain the numeric values used later in the protein level evaluation process.

Kelly cells = assay: Cell viability CTG assay, Kelly; settings: 72 h, 0.001-50 μM, read-out: Kelly Geomean absolute IC50 by molecule, 72 H
Outline: (§3)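 Cells exposed to compound at 0.25% v/v DMSO for 72 h (37° C., 5% CO2). ATP quantified by CellTiter-Glo luminescence, normalized to DMSO control. Absolute IC50 (T/C=50%) by non-linear regression on duplicate means; geometric mean used for averages.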

MOLM-13 = assay: Cell viability, additional cell lines (CellTiter-Glo), MOLM-13; settings: Homo sapiens, MOLM-13, 72 h
Protocol: as §1, §2

H929 cells = assay: Cell viability CTG assay, H929; set-up: key to Geomean absolute IC50 by molecule, 72 H: Inactive represents IC50 > 50 μM; C represents 50 μM ≥ IC50 > 5 μM; settings: H929, 72 h, 0.001-50 μM
Outline: as §3

Hep3B cells = assay: Cell survival clonogenic assay, Hep3B; settings: 0.1-10 μM, crystal violet staining after 9-10 days
Protocol: To determine the ability of a single cell to form a colony (defined as a cluster of at least 50 cells), Kelly and Hep3B cells were maintained in RPM11640 (Kelly) or EMEM (Hep3B) medium, supplemented with penicillin/streptomycin and 10% FBS. The cells were counted and seeded on the 6-well plates, at the density of 1×10^3 cells per well, the compounds to be tested were added at the desired concentration range, and the cells were cultured at 37° C./5% CO2. After colony formation (9-10 days), the cells were washed and treated with 6.0% glutaraldehyde and 0.5% crystal violet mix for 30 min., followed by rinsing with water and drying at room temperature (RT).

KG-1a = assay: Cell viability, additional cell lines (CellTiter-Glo), KG-1a; settings: Homo sapiens, 72 h
Protocol: as §1, §2

MOLT-4 = assay: Cell viability, additional cell lines (CellTiter-Glo), MOLT-4; settings: Homo sapiens, MOLT-4, 72 h
Protocol: as §1, §2

KG-1 cells = assay: Cell viability CTG assay, KG-1; settings: Homo sapiens; KG-1, 72 h, 0.001-50 μM; read-out: KG-1 Geomean absolute IC50 by molecule, 72 H
Outline: as §3

[1] = 9.5 μM, read-out: Test/Control viability at 9.5 μM

T1 sequence (Q9UJQ4 whole entry): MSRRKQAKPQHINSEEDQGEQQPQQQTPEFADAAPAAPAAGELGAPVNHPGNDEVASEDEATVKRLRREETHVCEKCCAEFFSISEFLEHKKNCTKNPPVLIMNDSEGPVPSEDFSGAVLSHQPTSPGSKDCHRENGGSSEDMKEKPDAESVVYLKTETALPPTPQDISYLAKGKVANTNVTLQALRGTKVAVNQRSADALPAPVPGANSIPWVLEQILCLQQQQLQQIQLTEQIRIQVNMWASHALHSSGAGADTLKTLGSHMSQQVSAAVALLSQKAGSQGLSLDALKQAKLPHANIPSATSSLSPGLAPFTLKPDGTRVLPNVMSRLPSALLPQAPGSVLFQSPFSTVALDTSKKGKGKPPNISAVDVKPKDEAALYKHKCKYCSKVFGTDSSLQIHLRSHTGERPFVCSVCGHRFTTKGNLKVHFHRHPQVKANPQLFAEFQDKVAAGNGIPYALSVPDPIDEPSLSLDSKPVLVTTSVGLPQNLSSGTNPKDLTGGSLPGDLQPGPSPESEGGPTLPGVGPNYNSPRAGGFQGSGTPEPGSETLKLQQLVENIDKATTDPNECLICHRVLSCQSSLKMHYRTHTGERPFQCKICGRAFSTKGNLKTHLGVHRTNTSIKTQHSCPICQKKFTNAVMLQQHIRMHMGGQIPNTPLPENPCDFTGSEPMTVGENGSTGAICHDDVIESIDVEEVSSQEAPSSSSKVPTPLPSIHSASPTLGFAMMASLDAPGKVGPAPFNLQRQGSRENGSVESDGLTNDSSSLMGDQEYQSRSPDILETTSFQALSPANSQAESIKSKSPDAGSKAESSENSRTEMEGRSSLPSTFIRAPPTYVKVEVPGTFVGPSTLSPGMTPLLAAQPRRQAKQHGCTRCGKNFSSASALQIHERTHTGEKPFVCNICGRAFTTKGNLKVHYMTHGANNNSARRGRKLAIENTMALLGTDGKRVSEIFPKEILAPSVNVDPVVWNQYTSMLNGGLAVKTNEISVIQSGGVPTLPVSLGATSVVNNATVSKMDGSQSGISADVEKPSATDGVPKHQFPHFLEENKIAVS
T1 sequence (Q96SW2 whole entry): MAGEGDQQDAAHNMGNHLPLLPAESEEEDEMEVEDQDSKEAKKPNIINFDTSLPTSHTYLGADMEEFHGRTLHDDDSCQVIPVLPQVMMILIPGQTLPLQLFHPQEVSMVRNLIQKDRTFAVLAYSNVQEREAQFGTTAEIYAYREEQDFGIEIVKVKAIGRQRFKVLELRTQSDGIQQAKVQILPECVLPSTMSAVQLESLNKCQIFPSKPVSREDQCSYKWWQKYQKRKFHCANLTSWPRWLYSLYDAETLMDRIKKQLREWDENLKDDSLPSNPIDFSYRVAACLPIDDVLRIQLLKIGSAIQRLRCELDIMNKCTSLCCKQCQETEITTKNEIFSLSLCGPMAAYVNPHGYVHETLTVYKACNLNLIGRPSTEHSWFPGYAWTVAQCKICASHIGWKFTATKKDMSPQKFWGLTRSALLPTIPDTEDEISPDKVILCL
T1 sequence (Q16531 whole entry partner): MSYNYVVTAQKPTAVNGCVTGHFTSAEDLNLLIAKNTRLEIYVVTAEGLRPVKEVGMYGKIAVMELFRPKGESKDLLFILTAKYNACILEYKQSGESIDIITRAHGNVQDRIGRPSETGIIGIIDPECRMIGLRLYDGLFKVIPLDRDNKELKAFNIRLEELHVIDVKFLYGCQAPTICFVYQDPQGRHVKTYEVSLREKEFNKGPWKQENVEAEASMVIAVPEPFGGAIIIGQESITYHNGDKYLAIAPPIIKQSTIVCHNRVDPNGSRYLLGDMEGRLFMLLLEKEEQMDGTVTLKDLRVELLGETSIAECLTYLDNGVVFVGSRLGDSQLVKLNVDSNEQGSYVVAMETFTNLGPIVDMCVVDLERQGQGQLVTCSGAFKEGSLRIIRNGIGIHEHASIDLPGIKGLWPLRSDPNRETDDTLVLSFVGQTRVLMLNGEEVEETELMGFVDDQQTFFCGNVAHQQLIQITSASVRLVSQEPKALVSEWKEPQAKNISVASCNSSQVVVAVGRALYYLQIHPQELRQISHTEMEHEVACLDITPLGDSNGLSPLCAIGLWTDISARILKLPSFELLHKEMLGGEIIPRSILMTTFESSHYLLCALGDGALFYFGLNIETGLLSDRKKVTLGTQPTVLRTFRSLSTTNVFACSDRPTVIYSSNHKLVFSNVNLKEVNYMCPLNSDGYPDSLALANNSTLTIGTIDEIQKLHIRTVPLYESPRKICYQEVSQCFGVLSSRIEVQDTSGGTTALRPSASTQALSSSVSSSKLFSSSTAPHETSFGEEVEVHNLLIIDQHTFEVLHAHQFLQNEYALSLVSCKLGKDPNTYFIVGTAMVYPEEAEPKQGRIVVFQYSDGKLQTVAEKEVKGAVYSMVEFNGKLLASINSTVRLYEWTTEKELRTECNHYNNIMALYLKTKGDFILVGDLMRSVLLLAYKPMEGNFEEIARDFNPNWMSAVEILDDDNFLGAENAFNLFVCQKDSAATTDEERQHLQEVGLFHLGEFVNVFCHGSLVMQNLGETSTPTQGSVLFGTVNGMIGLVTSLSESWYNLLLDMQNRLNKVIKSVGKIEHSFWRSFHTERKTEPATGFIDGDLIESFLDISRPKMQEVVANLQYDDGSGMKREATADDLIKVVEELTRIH

SMILES: NCc1ccc2c(c1)CN(C1CCC(=O)NC1=O)C2=O (stereo not shown) [Compound 1, 3-(5-(aminomethyl)-1-oxoisoindolin-2-yl)piperidine-2,6-dione]
- IC50 (OPM-2): > 30000 nM
- IC50 (EOL-1): > 30000 nM
- IC50 (NOMO-1): > 30000 nM
- viability at 9.5 µM (HEP-3B; [1]): ≤ 30%
- IC50 (HEP-3B; read-out: Absolute IC50): 100 to 1000 nM
- % of SALL4 protein reduction (SALL4): >80%
- IC50 (Kelly cells): 100 to 1000 nM
- IC50 (MOLM-13; read-out: Absolute IC50): ≥ 30000 nM
- viability at 9.5 µM (MOLM-13; [1]): ≤ 60%
- Geomean absolute IC50 by molecule, 72 H (H929 cells): Inactive
- survival of the cells (colony formation) (Hep3B cells): in most cases inhibited
- viability at 9.5 µM (KG-1a; [1]): ≤ 30%
- IC50 (KG-1a; read-out: Absolute IC50): ≤ 100 nM
- IC50 (MOLT-4; read-out: Absolute IC50): ≥ 30000 nM
- viability at 9.5 µM (MOLT-4; [1]): ≤ 60%
- IC50 (KG-1 cells): ≤ 100 nM
